Assay results published in PubChem BioAssay AID1963873 (Molecular Pharmacology Branch, DTP, NCI, 2024).

System: 276233-004-R-J1-PDC KRAS spheroids with HUVEC/MSC, viability
Test: Anticancer human tumor 276233-004-R-J1-PDC patient-derived colon adenocarcinoma cell line growth inhibition [KRAS2]
Conditions: for IC50: curve of first compound; for viability, T/C: stronger effect = lower value
How it was run: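 Combination screen of spheroid viability in tumor-cell co-cultures with endothelial (HUVEC) and mesenchymal stem cell stroma. Each agent was tested in half-log dilutions, topping at clinical Cmax or at 10 microM without a known Cmax.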

[1] = second compound 0.1 µM, first compound 0.000316 µM
[2] = second compound 0.1 µM, first compound 0.001 µM
[3] = second compound 0.1 µM, first compound 0.00316 µM
[4] = second compound 0.1 µM, first compound 0.01 µM
[5] = second compound 0.1 µM, first compound 0.0316 µM
[6] = second compound 0.1 µM, first compound 0.1 µM
[7] = second compound 0.316 µM, first compound 0.000316 µM
[8] = second compound 0.316 µM, first compound 0.001 µM
[9] = second compound 0.316 µM, first compound 0.00316 µM
[10] = second compound 0.316 µM, first compound 0.01 µM
[11] = second compound 0.316 µM, first compound 0.0316 µM
[12] = second compound 0.316 µM, first compound 0.1 µM
[13] = second compound 1 µM, first compound 0.000316 µM
[14] = second compound 1 µM, first compound 0.001 µM
[15] = second compound 1 µM, first compound 0.00316 µM
[16] = second compound 1 µM, first compound 0.01 µM
[17] = second compound 1 µM, first compound 0.0316 µM
[18] = second compound 1 µM, first compound 0.1 µM
[19] = second compound 3.16 µM, first compound 0.000316 µM
[20] = second compound 3.16 µM, first compound 0.001 µM
[21] = second compound 3.16 µM, first compound 0.00316 µM
[22] = second compound 3.16 µM, first compound 0.01 µM
[23] = second compound 3.16 µM, first compound 0.0316 µM
[24] = second compound 3.16 µM, first compound 0.1 µM
[25] = second compound 10 µM, first compound 0.000316 µM
[26] = second compound 10 µM, first compound 0.001 µM
[27] = second compound 10 µM, first compound 0.00316 µM
[28] = second compound 10 µM, first compound 0.01 µM
[29] = second compound 10 µM, first compound 0.0316 µM
[30] = second compound 10 µM, first compound 0.1 µM
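Further: cells exposed to agents for seven days before viability read.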
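Wherever viability, T/C is given: 100% = DMSO vehicle control wells and lower values mean fewer viable cells.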

CC(C)n1nc(-c2ccc3oc(N)nc3c2)c2c(N)ncnc21 + CC1OCC2(CCN(c3cnc(Sc4ccnc(N)c4Cl)c(N)n3)CC2)C1N
IC50 (second compound 0.1 µM): 67.8 nM | IC50 (second compound 0.316 µM): > 100 nM | IC50 (second compound 1 µM): 48.9 nM | IC50 (second compound 3.16 µM): 12.1 nM | IC50 (second compound 10 µM): 7.82 nM | viability, T/C [1]: 87.9% | viability, T/C [2]: 104% | viability, T/C [3]: 71.9% | viability, T/C [4]: 69.7% | viability, T/C [5]: 54.1% | viability, T/C [6]: 47.1% | viability, T/C [7]: 90.9% | viability, T/C [8]: 81.7% | viability, T/C [9]: 67.5% | viability, T/C [10]: 68.9% | viability, T/C [11]: 53.8% | viability, T/C [12]: 57.5% | viability, T/C [13]: 80.9% | viability, T/C [14]: 68.1% | viability, T/C [15]: 77% | viability, T/C [16]: 59.1% | viability, T/C [17]: 52.5% | viability, T/C [18]: 44.7% | viability, T/C [19]: 73.7% | viability, T/C [20]: 74.5% | viability, T/C [21]: 51.6% | viability, T/C [22]: 57.7% | viability, T/C [23]: 40.3% | viability, T/C [24]: 32.5% | viability, T/C [25]: 70.6% | viability, T/C [26]: 66.8% | viability, T/C [27]: 64.4% | viability, T/C [28]: 45.9% | viability, T/C [29]: 43.4% | viability, T/C [30]: 40.1%

CN(C)C/C=C/C(=O)Nc1cc2c(Nc3ccc(F)c(Cl)c3)ncnc2cc1O[C@H]1CCOC1 + CNCc1ccccc1-c1csc(C(C)Nc2nc(C)nc3cc(OC)c(OC)cc23)c1
IC50 (second compound 0.1 µM): > 100 nM | IC50 (second compound 0.316 µM): > 100 nM | IC50 (second compound 1 µM): > 100 nM | IC50 (second compound 3.16 µM): < 0.316 nM | IC50 (second compound 10 µM): < 0.316 nM | viability, T/C [1]: 95.8% | viability, T/C [2]: 106% | viability, T/C [3]: 89% | viability, T/C [4]: 95.2% | viability, T/C [5]: 86.8% | viability, T/C [6]: 74.7% | viability, T/C [7]: 95.9% | viability, T/C [8]: 82.5% | viability, T/C [9]: 83.1% | viability, T/C [10]: 73% | viability, T/C [11]: 67.9% | viability, T/C [12]: 69.8% | viability, T/C [13]: 81.4% | viability, T/C [14]: 73.5% | viability, T/C [15]: 77.3% | viability, T/C [16]: 81.2% | viability, T/C [17]: 63% | viability, T/C [18]: 79.2% | viability, T/C [19]: 4.26% | viability, T/C [20]: 2.41% | viability, T/C [21]: 3.56% | viability, T/C [22]: 3.46% | viability, T/C [23]: 8.28% | viability, T/C [24]: 1.18% | viability, T/C [25]: 5.68% | viability, T/C [26]: 0.19% | viability, T/C [27]: 0.31% | viability, T/C [28]: 0.19% | viability, T/C [29]: 0.88% | viability, T/C [30]: 0.67%

CN(C)C/C=C/C(=O)Nc1cc2c(Nc3ccc(F)c(Cl)c3)ncnc2cc1O[C@H]1CCOC1 + COc1cc2nc(C)nc(NC(C)c3cc(N)cc(C(F)(F)F)c3)c2cc1OC1CCOC1
IC50 (second compound 0.1 µM): > 100 nM | IC50 (second compound 0.316 µM): > 100 nM | IC50 (second compound 1 µM): > 100 nM | IC50 (second compound 3.16 µM): > 100 nM | IC50 (second compound 10 µM): > 100 nM | viability, T/C [1]: 99.4% | viability, T/C [2]: 95.6% | viability, T/C [3]: 77.4% | viability, T/C [4]: 86.9% | viability, T/C [5]: 79.8% | viability, T/C [6]: 80.2% | viability, T/C [7]: 80% | viability, T/C [8]: 82.9% | viability, T/C [9]: 71.7% | viability, T/C [10]: 61.1% | viability, T/C [11]: 68.5% | viability, T/C [12]: 74% | viability, T/C [13]: 86.1% | viability, T/C [14]: 107% | viability, T/C [15]: 87.9% | viability, T/C [16]: 83.8% | viability, T/C [17]: 71.4% | viability, T/C [18]: 67.5% | viability, T/C [19]: 64.4% | viability, T/C [20]: 66.9% | viability, T/C [21]: 74.7% | viability, T/C [22]: 63% | viability, T/C [23]: 56% | viability, T/C [24]: 66.3% | viability, T/C [25]: 65% | viability, T/C [26]: 69% | viability, T/C [27]: 67.4% | viability, T/C [28]: 65.5% | viability, T/C [29]: 63.6% | viability, T/C [30]: 63.4%

CC(C)NCC(C(=O)N1CCN(c2ncnc3c2C(C)CC3O)CC1)c1ccc(Cl)cc1 (stereo not given) + CNCc1ccccc1-c1csc(C(C)Nc2nc(C)nc3cc(OC)c(OC)cc23)c1
IC50 (second compound 0.1 µM): > 10000 nM | IC50 (second compound 0.316 µM): > 10000 nM | IC50 (second compound 1 µM): 563 nM | IC50 (second compound 3.16 µM): < 31.6 nM | IC50 (second compound 10 µM): < 31.6 nM | viability, T/C [5]: 77.2% | viability, T/C [6]: 69.9% | viability, T/C (second compound 0.1 µM, first compound 0.316 µM): 79.5% | viability, T/C (second compound 0.1 µM, first compound 1 µM): 78.8% | viability, T/C (second compound 0.1 µM, first compound 3.16 µM): 66% | viability, T/C (second compound 0.1 µM, first compound 10 µM): 53.6% | viability, T/C [11]: 88.3% | viability, T/C [12]: 96.1% | viability, T/C (second compound 0.316 µM, first compound 0.316 µM): 76.4% | viability, T/C (second compound 0.316 µM, first compound 1 µM): 70.6% | viability, T/C (second compound 0.316 µM, first compound 3.16 µM): 70.4% | viability, T/C (second compound 0.316 µM, first compound 10 µM): 58.6% | viability, T/C [17]: 66.9% | viability, T/C [18]: 50.1% | viability, T/C (second compound 1 µM, first compound 0.316 µM): 78.5% | viability, T/C (second compound 1 µM, first compound 1 µM): 34.9% | viability, T/C (second compound 1 µM, first compound 3.16 µM): 23.9% | viability, T/C (second compound 1 µM, first compound 10 µM): 38.2% | viability, T/C [23]: 0.57% | viability, T/C [24]: 0.54% | viability, T/C (second compound 3.16 µM, first compound 0.316 µM): 0.43% | viability, T/C (second compound 3.16 µM, first compound 1 µM): 0.58% | viability, T/C (second compound 3.16 µM, first compound 3.16 µM): 0.56% | viability, T/C (second compound 3.16 µM, first compound 10 µM): 0.49% | viability, T/C [29]: 0.2% | viability, T/C [30]: 0.22% | viability, T/C (second compound 10 µM, first compound 0.316 µM): 0.18% | viability, T/C (second compound 10 µM, first compound 1 µM): 0.2% | viability, T/C (second compound 10 µM, first compound 3.16 µM): 1.04% | viability, T/C (second compound 10 µM, first compound 10 µM): 0.31%
